From the supplement of paper PMC10307832

Legend:
Assay in all cases: relative viability (nuclei count vs DMSO), 5 days (fraction); higher = more cells survive
AZD5582 + Tozasertib = compound: C[C@@H](C(=O)N[C@@H](C1CCCCC1)C(=O)N2CCC[C@H]2C(=O)N[C@@H]3[C@@H](CC4=CC=CC=C34)OCC#CC#CCO[C@@H]5CC6=CC=CC=C6[C@@H]5NC(=O)[C@@H]7CCCN7C(=O)[C@H](C8CCCCC8)NC(=O)[C@H](C)NC)NC [AZD5582] + Cc1cc(Nc2cc(N3CCN(C)CC3)nc(Sc3ccc(NC(=O)C4CC4)cc3)n2)n[nH]1 [Tozasertib] (partner 0.1 µM)
In short: (§1)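 One day after seeding in 1536-well plates, lung cancer cell lines were dosed by pin tool. Dosing was either single-drug or a fixed anchor-drug dose plus five library-drug doses (not always all listed) in √10 steps. After 5 days, nuclei were stained in one fix-and-stain step and counted on 4× images, and relative viability is the nuclei count of treated wells over that of vehicle wells, given as the median of duplicate plates.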

[1] = compound: Cn1nnc2c(C(N)=O)ncn2c1=O [Temozolomide] + C[C@]1(O)C[C@@H](c2nc(-c3ccc4ccc(-c5ccccc5)nc4c3)c3c(N)nccn32)C1 [Linsitinib] (partner 1 µM)
In short: as §1

[2] = compound: Cn1nnc2c(C(N)=O)ncn2c1=O [Temozolomide] + CC(=O)c1c(C)c2cnc(Nc3ccc(N4CCNCC4)cn3)nc2n(C2CCCC2)c1=O [Palbociclib] (partner 0.5 µM)
In short: as §1

[3] = compound: Cn1nnc2c(C(N)=O)ncn2c1=O [Temozolomide] + CC1(C)CCC(c2ccc(Cl)cc2)=C(CN2CCN(c3ccc(C(=O)NS(=O)(=O)c4ccc(N[C@H](CCN5CCOCC5)CSc5ccccc5)c(S(=O)(=O)C(F)(F)F)c4)cc3)CC2)C1 [Navitoclax] (partner 0.5 µM)
In short: as §1

| Cell Line | relative viability (AZD5582 + Tozasertib; first compound 0.001581 µM) | relative viability (AZD5582 + Tozasertib; first compound 0.005 µM) | relative viability (AZD5582 + Tozasertib; first compound 0.01581 µM) | relative viability (AZD5582 + Tozasertib; first compound 0.05 µM) | relative viability ([1]; first compound 0.2 µM) | relative viability ([1]; first compound 0.6325 µM) | relative viability ([1]; first compound 2 µM) | relative viability ([1]; first compound 6.325 µM) | relative viability ([1]; first compound 20 µM) | relative viability ([2]; first compound 0.2 µM) | relative viability ([2]; first compound 0.6325 µM) | relative viability ([2]; first compound 2 µM) | relative viability ([2]; first compound 6.325 µM) | relative viability ([2]; first compound 20 µM) | relative viability ([3]; first compound 0.2 µM) | relative viability ([3]; first compound 0.6325 µM) | relative viability ([3]; first compound 2 µM) | relative viability ([3]; first compound 6.325 µM) | relative viability ([3]; first compound 20 µM) |
| --- | --- | --- | --- | --- | --- | --- | --- | --- | --- | --- | --- | --- | --- | --- | --- | --- | --- | --- | --- |
| NCI-H650 | 0.648 | 0.876 | 0.722 | 0.628 | 1.08 | 0.893 | 1.05 | 0.735 | 0.83 | 0.373 | 0.328 | 0.319 | 0.329 | 0.314 |  |  |  |  |  |
| LC-2-ad | 0.363 | 0.493 | 0.418 | 0.4 | 0.795 | 0.823 | 0.808 | 0.751 | 0.807 | 0.474 | 0.494 | 0.512 | 0.537 | 0.473 | 0.598 | 0.437 | 0.358 | 0.374 | 0.336 |
| NCI-H1299 |  |  |  |  | 0.994 | 0.961 | 1.16 | 1 | 1.02 |  |  |  |  |  | 1.04 | 1.09 | 1.06 | 1.01 | 1.08 |
| NCI-H3122 | 0.157 | 0.178 | 0.477 | 0.121 | 0.963 | 1.02 | 1.02 | 0.985 | 0.98 | 0.206 | 0.202 | 0.175 | 0.174 | 0.153 | 1.05 | 1.03 | 1.08 | 1.01 | 0.976 |
| EBC-1 |  |  |  |  | 1.03 | 0.885 | 1.13 | 0.912 | 0.947 |  |  |  |  |  | 0.512 | 0.41 | 0.358 | 0.384 | 0.404 |
| NCI-H441 | 0.581 | 0.653 |  | 0.587 | 0.651 | 0.601 | 0.548 | 0.451 | 0.529 | 0.23 | 0.211 | 0.211 | 0.245 | 0.226 | 0.692 | 0.628 | 0.926 | 0.542 | 0.789 |
| LOU-NH91 | 0.594 | 0.679 | 0.679 | 0.613 | 0.534 | 0.955 | 1.01 | 0.932 | 0.505 | 0.585 | 0.566 | 0.552 | 0.557 | 0.572 | 0.395 | 0.738 | 0.702 | 0.596 | 0.361 |
| LXF-289 | 0.195 | 0.192 | 0.18 | 0.191 | 0.933 | 0.939 | 0.954 | 0.938 | 0.876 | 0.616 | 0.626 | 0.606 | 0.579 | 0.564 | 0.98 | 0.91 | 0.946 | 0.937 | 0.847 |
| HCC-827 | 0.398 | 0.489 | 0.436 | 0.396 | 0.998 | 0.959 | 0.954 | 0.968 | 0.158 | 0.461 | 0.449 | 0.513 | 0.517 | 0.148 | 1.07 | 1.07 | 0.992 | 0.984 | 0.129 |
